SMILES strings stand for the structures. ≈ marks a conversion by molar mass, not a printed value. Where two headings read alike, the source gives them in different places.

Results on 5 compounds are retold here after patent publication US6762181B1, “Aminomethylpyrrolidine derivatives having aromatic substituents” (Daiichi Pharmaceutical Co., Ltd., priority 1999, dated 2004).

Assay in all cases: Antibacterial activity (MIC), Japan Society of Chemotherapy standard method
Format in all cases: cell-based

The test system of experiment [1] is Str. pneumoniae J24. The procedure: (§1) Antibacterial activities of the compounds of the invention were measured in accordance with the standard method specified by the Japan Society of Chemotherapy, with the results shown in the following table as MIC values (μg/ml). In this connection, MIC values of levofloxacin (LVFX), ciprofloxacin (CPFX) and 5-amino-7-[3-(R)-[1-(S)-aminoethyl]pyrrolidin-1-yl]-6-fluoro-1-[2-(S)-fluoro-1-(R)-cyclopropyl]-8-methyl-1,4-dihydro-4-oxoquinoline-3-carboxylic acid (control drug 1) described in WO 9623782 are also shown for the sake of comparison with the MIC values of the compounds of the invention.

In experiment [2] the test system is K. pneumoniae TYPE 1. The procedure: as §1
Experiment [3] deals with S. flexneri 2A 5503. As for the experimental part:
as §1

Experiment [4] deals with Ser. marcescens 10100. As for the experimental part:
as §1

The subject of experiment [5] is E. coli NIHJ. The procedure: as §1
Experiment [6] deals with S. epidermidis 56500. The procedure: as §1
Experiment [7] concerns Ps. aeruginosa 32121. The procedure:
as §1

Experiment [8] relates to E. faecalis ATCC 19433. The procedure: as §1
The subject of experiment [9] is Pr. Vulgaris O8601. As for the experimental part:
as §1

Experiment [10] has as its system Ps. aeruginosa 32104. The procedure: as §1
The test system of experiment [11] is Str. pyrogenes G-36. As for the experimental part:
as §1

Experiment [12] has as its system S. aureus FDA 209P. As for the experimental part:
as §1

Experiment [13] concerns S. aureus 870307. As for the experimental part:
as §1

For experiment [14], the system named is X. maltophilia IID 1275. The procedure: as §1
The mark [15] stands for this setting: Streptococcus pneumoniae, J24, Str. pneumoniae J24, read-out: MIC.
[16] abbreviates: Shigella flexneri, 2A5503, S. flexneri 2A 5503, read-out: MIC.
Where [17] appears, read: Serratia marcescens, 10100, Ser. marcescens 10100, read-out: MIC.
Setting [18] is: Escherichia coli, read-out: MIC.
Setting [19] is: Staphylococcus epidermidis, read-out: MIC.
The mark [20] stands for this setting: Pseudomonas aeruginosa, 32104, Ps. aeruginosa 32104, read-out: MIC.
Setting [21] is: Staphylococcus aureus, FDA209P, read-out: MIC.
Setting [22] is: Klebsiella pneumoniae, TYPE1, K. pneumoniae TYPE 1, read-out: MIC.
Where [23] appears, read: Pseudomonas aeruginosa, 32121, Ps. aeruginosa 32121, read-out: MIC.
Where [24] appears, read: Enterococcus faecalis, ATCC19433, E. faecalis ATCC 19433, read-out: MIC.
The mark [25] stands for this setting: Proteus vulgaris, read-out: MIC.
Where [26] appears, read: Staphylococcus aureus, 870307, S. aureus 870307, read-out: MIC.
Where [27] appears, read: Stenotrophomonas maltophilia, IID1275, X. maltophilia IID 1275, read-out: MIC.

For orientation: MIC means the smallest concentration in the dilution series that meets the test's criterion for growth inhibition. For `Nc1c(F)c(N2CC[C@@H](C(N)c3ccccc3)C2)c(F)c2c1c(=O)c(C(=O)O)cn2[C@@H]1C[C@@H]1F` (single isomer, unassigned) [Example 1], the MIC was 0.006 µg/mL (≈ 0.0127 µM) in experiment [1] (setting [15]); 0.05 µg/mL (≈ 0.106 µM) in [2] (K. pneumoniae TYPE 1); 0.006 µg/mL (≈ 0.0127 µM) in experiment [3] (setting [16]); 0.1 µg/mL (≈ 0.212 µM) in [4] (setting [17]); not above 0.003 µg/mL in [5] (setting [18]); not above 0.003 µg/mL in experiment [6] (setting [19]). The MIC is 0.1 µg/mL (≈ 0.212 µM) in experiment [7] (Ps. aeruginosa 32121); 0.05 µg/mL (≈ 0.106 µM) in experiment [8] (E. faecalis ATCC 19433); 0.1 µg/mL (≈ 0.212 µM) in experiment [9]; 0.2 µg/mL (≈ 0.423 µM) in experiment [10] (setting [20]); 0.013 µg/mL (≈ 0.0275 µM) in [11]; not above 0.003 µg/mL in [12] (setting [21]). Further, the MIC in experiment [13] (S. aureus 870307) stood at 0.025 µg/mL (≈ 0.0529 µM); in [14] (X. maltophilia IID 1275) it was 0.1 µg/mL (≈ 0.212 µM).

As for `Nc1c(F)c(N2CC[C@@H](C(N)c3ccccc3)C2)c(F)c2c1c(=O)c(C(=O)O)cn2[C@@H]1C[C@@H]1F` (single isomer, unassigned) [Example 2], the MIC result in experiment [1] (Str. pneumoniae J24) was “≦0.003 μg/ml”; in [2] (K. pneumoniae TYPE 1) it was 0.013 µg/mL (≈ 0.0275 µM); in [3] (S. flexneri 2A 5503), “≦0.003 μg/ml”; in [4] (Ser. marcescens 10100), 0.05 µg/mL (≈ 0.106 µM); in experiment [5], “≦0.003 μg/ml”; in [6], “≦0.003 μg/ml”. The minimal inhibitory concentration (MIC) in [7] (Ps. aeruginosa 32121) is 0.025 µg/mL (≈ 0.0529 µM); in experiment [8] (E. faecalis ATCC 19433) it was 0.006 µg/mL (≈ 0.0127 µM); in [9], 0.025 µg/mL (≈ 0.0529 µM); in [10] (Ps. aeruginosa 32104) it was 0.1 µg/mL (≈ 0.212 µM); in experiment [11], “≦0.003 μg/ml”; in experiment [12], “≦0.003 μg/ml”. Further, the MIC entry in experiment [13] (S. aureus 870307) was “≦0.003 μg/ml”; in [14] (X. maltophilia IID 1275) it was 0.025 µg/mL (≈ 0.0529 µM).

Turning to `O=C(O)c1cn(C2CC2)c2cc(N3CCNCC3)c(F)cc2c1=O` [CPFX, ciprofloxacin, reference compound], the MIC in experiment [1] (setting [15]) is 0.1 µg/mL (≈ 0.302 µM); in experiment [2] (setting [22]), 0.025 µg/mL (≈ 0.0754 µM); in [3] (setting [16]), 0.006 µg/mL (≈ 0.0181 µM); in experiment [4] (setting [17]), 0.025 µg/mL (≈ 0.0754 µM); in experiment [5] (setting [18]) it was not above 0.003 µg/mL; in experiment [6] (setting [19]), 0.2 µg/mL (≈ 0.604 µM). The MIC in experiment [7] (setting [23]) was 0.025 µg/mL (≈ 0.0754 µM); in [8] (setting [24]), 0.78 µg/mL (≈ 2.35 µM); in [9] (setting [25]) it was not above 0.003 µg/mL; in experiment [10] (setting [20]), 0.05 µg/mL (≈ 0.151 µM); in [11] (read-out: MIC), 1.56 µg/mL (≈ 4.71 µM); in experiment [12] (setting [21]), 0.1 µg/mL (≈ 0.302 µM). Further, the MIC in experiment [13] (setting [26]) came to 3.13 µg/mL (≈ 9.45 µM); in experiment [14] (setting [27]), 0.78 µg/mL (≈ 2.35 µM).

Consider `Cc1c(N2CC[C@@H]([C@H](C)N)C2)c(F)c(N)c2c(=O)c(C(=O)O)cn([C@@H]3C[C@@H]3F)c12` [Control drug 1, 5-amino-7-[3-(R)-[1-(S)-aminoethyl]pyrrolidin-1-yl]-6-fluoro-1-[2-(S)-fluoro-1-(R)-cyclopropyl]-8-methyl-1,4-dihydro-4-oxoquinoline-3-carboxylic acid, reference compound], for which the MIC in [1] (setting [15]) is not above 0.003 µg/mL; in [2] (setting [22]), 0.05 µg/mL (≈ 0.123 µM); in [3] (setting [16]), 0.006 µg/mL (≈ 0.0148 µM); in [4] (setting [17]), 0.1 µg/mL (≈ 0.246 µM); in experiment [5] (setting [18]), 0.006 µg/mL (≈ 0.0148 µM); in experiment [6] (setting [19]) it was not above 0.003 µg/mL. Besides, the MIC was 0.05 µg/mL (≈ 0.123 µM) in [7] (setting [23]); 0.025 µg/mL (≈ 0.0615 µM) in experiment [8] (setting [24]); 0.013 µg/mL (≈ 0.032 µM) in experiment [9] (setting [25]); 0.1 µg/mL (≈ 0.246 µM) in experiment [10] (setting [20]); not above 0.003 µg/mL in experiment [11] (read-out: MIC); not above 0.003 µg/mL in experiment [12] (setting [21]). Also, the MIC in experiment [13] (setting [26]) was 0.025 µg/mL (≈ 0.0615 µM); in experiment [14] (setting [27]), 0.2 µg/mL (≈ 0.492 µM).

For `COc1c(N2CC[C@@H](C(N)c3ccccc3)C2)c(F)cc2c(=O)c(C(=O)O)cn([C@@H]3C[C@@H]3F)c12` (stereo partly drawn) [Example 3, 7-[3-(R)-(1-Amino-1-Phenylmethyl)-1-Pyrrolidinyl]-6-Fluoro-1-[2-(S)-Fluoro-1-(R)-Cyclopropyl]-1,4-Dihydro-8-Methoxy-4-Oxoquinoline-3-Carboxylic Acid], the MIC is not above 0.003 µg/mL in experiment [1] (setting [15]); 0.025 µg/mL (≈ 0.0532 µM) in experiment [2] (setting [22]); not above 0.003 µg/mL in [3] (setting [16]); 0.05 µg/mL (≈ 0.106 µM) in [4] (setting [17]); not above 0.003 µg/mL in [5] (setting [18]); not above 0.003 µg/mL in [6] (setting [19]). The MIC in experiment [7] (setting [23]) was 0.05 µg/mL (≈ 0.106 µM); in experiment [8] (setting [24]), 0.013 µg/mL (≈ 0.0277 µM); in [9] (setting [25]) it was 0.025 µg/mL (≈ 0.0532 µM); in experiment [10] (setting [20]) it was 0.1 µg/mL (≈ 0.213 µM); in experiment [11] (read-out: MIC) it was not above 0.003 µg/mL; in experiment [12] (setting [21]) it was not above 0.003 µg/mL. For the same compound, the MIC in experiment [13] (setting [26]) was not above 0.003 µg/mL; in experiment [14] (setting [27]) it was 0.025 µg/mL (≈ 0.0532 µM).
